Laboratory results as given in US20250235507A1, “INHALABLE POROUS MICROSPHERE LOADED WITH RECOMBINANT HUMAN RELAXIN-2 AND PREPARATION METHOD THEREFOR” (SHANDONG UNIVERSITY, priority 2023, published 2025).

Tests used:
[1] = system: bleomycin-induced pulmonary fibrosis mouse model; experiment: Anti-fibrosis effect in bleomycin-induced pulmonary fibrosis mouse model (micro-CT, weight, lung wet weight); assay type: in vivo
Protocol: (§1) C57BL/6J mice (20±2 g, female) were purchased from Beijing Life River Experimental Animal Technology Co., Ltd, and were housed in specific pathogen-free animal facilities. For the induction of fibrosis, mice were treated with 100 μL of bleomycin (with concentration of 1 mg/mL) at a dose of 5 mg/Kg via tracheal intubation.
(§2) After two weeks of bleomycin administration, mice were divided into four groups. In the RLX@PMs group, porous microspheres loaded with RLX were administered at a single dose of 70 μg/mouse (including RLX) to each mouse via nebulization. Similarly, in the RLX-free group, the RLX-free solution was administered via nebulization at a dose of 5 μg/mouse daily for two weeks. In addition, a blank control group only nebulized with PBS (PBS group) was also set up. Pirfenidone was used as a positive control, and was administered via intragastric gavage to mice at a dose of 300 mg/kg daily for two weeks (PFD group). The weight of mice was recorded once every two days.
For further examination, after anesthesia, whole-lung imaging was performed using a micro-computed tomography (micro-CT) imaging system for small animals (scanning parameters: scan resolution, 18 μm; voltage, 70 kV; current, 100 μA). After treatment, all mice were euthanized and tissues were collected for further analysis, and lung coefficient was calculated by the wet weight of lungs.

[2] = system: bleomycin-induced pulmonary fibrosis mouse model; experiment: Lung histopathology: H&E, Masson trichrome and Sirius red staining; assay type: in vivo, C57BL/6J mice
Protocol: as §1, §2
In addition to in vivo imaging examination, we also used hematoxylin and eosin (H&E) staining, Masson's trichrome staining and Sirius red staining to detect the histological changes and collagen deposition in the lungs according to the manufacturer's instructions. After the mice were euthanized, the whole lung tissues were collected and fixed in 4% paraformaldehyde overnight. Subsequently, the tissues were subjected to gradient dehydration according to the standard procedure and embedded with paraffin. The lung tissues of mice were embedded in paraffin and cut into 3 μm sections, followed by H&E staining. […] The stained sections were imaged using a VS120 virtual slide microscope, and the severity of interstitial fibrosis was evaluated at 100× magnification by measuring the percentage of blue stained area. […] After staining, the stained sections were scanned by a polarization microscope, and the degree of collagen deposition in the lung was evaluated based on the image. All collagen density data were quantified by ImageJ software.

[3] = mice
Protocol: Real-time fluorescence images were obtained by the small animal in vivo imaging system at regular intervals. The same treatment was carried out using the same dose of rhodamine B-free as the control group.

Compound	lung structure / fibrosis by micro-CT ([1]; after 4 weeks of treatment)	mortality ([1]; bleomycin mice, PFD 300 mg/kg daily, intragastric)	weight change of mice ([1]; weight recorded every two days)	collagen accumulation / deposition (Masson trichrome staining) ([2]; fibrosis around bronchi, versus PBS group)	airway remodeling, angiogenesis and parenchymal inflammation (lung histopathology) ([2]; increased by bleomycin exposure)	therapeutic effect on collagen deposition (Sirius red staining) ([2]; polarization microscope)	site of deposition (lung versus gastrointestinal tract), fluorescence signals ([3]; nebulized inhalation, in vivo imaging)	time until fluorescence signals disappeared completely ([3]; single inhalation) [weeks]
Cc1ccc(=O)n(-c2ccccc2)c1 [Pirfenidone]	a certain degree of fibrosis	died within three weeks	progressive weight loss	lower than that of the PBS group	attenuated these effects	slight therapeutic effect		
CCN(CC)c1ccc2c(-c3ccccc3C(=O)O)c3ccc(=[N+](CC)CC)cc-3oc2c1 [rhodamine B-free, rhodamine B]							higher	≤ 2
